From PubChem BioAssay (NCI)
Where “and” joins values, the source holds several entries; their conditions need not be identical. Equal entries are not always repeated.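 Five concentrations, 48 hours, 96-well plates. The concentration for 50% growth inhibition is given as GI50. TGI is the concentration that stops growth completely.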

How the values were obtained:
Experiment in all cases: DTP human tumour cell line panel, 48 h
BT-549 breast = system: BT-549 breast
SF-295 CNS = system: SF-295 CNS
M14 melanoma = system: M14 melanoma
XF 498 CNS = system: XF 498 CNS
DMS 114 small cell lung = system: DMS 114 small cell lung
DU-145 prostate = system: DU-145 prostate
CCRF-CEM leukemia = system: CCRF-CEM leukemia
SR leukemia = system: SR leukemia
DLD-1 colon = system: DLD-1 colon
M19-MEL melanoma = system: M19-MEL melanoma

## C/C=C1\C[C@@H]2C(OC)Nc3cc(O)c(OC)cc3C(=O)N2C1 (stereo partly drawn)
BT-549 breast
  TGI: 0.0151 µM and 0.0269 µM
SF-295 CNS
  GI50: 0.00328 µM
  TGI: 0.467 µM and 1.43 µM
M14 melanoma
  TGI: 0.0428 µM and < 0.032 µM
XF 498 CNS
  GI50: 0.00191 µM
  TGI: 0.00398 µM
DMS 114 small cell lung
  TGI: 0.0035 µM
DU-145 prostate
  GI50: 0.00348 µM
  TGI: 0.0248 µM and 0.21 µM
CCRF-CEM leukemia
  GI50: 0.00229 µM
  TGI: 0.103 µM and 0.349 µM
SR leukemia
  TGI: 0.0602 µM
DLD-1 colon
  TGI: 20 µM
M19-MEL melanoma
  TGI: 0.0413 µM and 0.0101 µM

## O=[N+]([O-])c1cc([N+](=O)[O-])c(C(Cl)C(Cl)c2ccccc2)cc1C(Cl)C(Cl)c1ccccc1 (stereo not drawn)
SF-295 CNS
  TGI: 5.17 µM
M14 melanoma
  TGI: 2.93 µM
XF 498 CNS
  TGI: 3.55 µM
DMS 114 small cell lung
  TGI: 3.34 µM
CCRF-CEM leukemia
  TGI: 5.96 µM
SR leukemia
  TGI: > 100 µM
DLD-1 colon
  TGI: 3.27 µM
M19-MEL melanoma
  TGI: 3.62 µM

## CN1CCN(CCCN2c3ccccc3Sc3ccc(C(F)(F)F)cc32)CC1
BT-549 breast
  GI50: 3.71 µM
  TGI: 14.5 µM and 29.3 µM and 28.1 µM
SF-295 CNS
  GI50: 1.76 µM
  TGI: 3.68 µM and 15.8 µM and 23.2 µM
M14 melanoma
  TGI: 3.53 µM and 3.38 µM and 3.35 µM
DMS 114 small cell lung
  TGI: 23.4 µM
DU-145 prostate
  GI50: 2.39 µM
  TGI: 5.48 µM and 23.3 µM and 30.1 µM
CCRF-CEM leukemia
  GI50: 2.35 µM and 2.17 µM and 8.25 µM
  TGI: 6 µM and 6.52 µM and 26.5 µM
SR leukemia
  GI50: 2.72 µM and 2.09 µM and 8.62 µM
  TGI: 7.95 µM and > 20.4 µM and 27.2 µM
DLD-1 colon
  TGI: 26.9 µM
M19-MEL melanoma
  TGI: 3.75 µM

## COc1cc2c3c(c1OCc1ccccc1)NCCC3NCC2 (stereo not drawn)
SF-295 CNS
  TGI: > 100 µM
M14 melanoma
  TGI: > 100 µM
XF 498 CNS
  TGI: > 100 µM
DMS 114 small cell lung
  TGI: > 100 µM
CCRF-CEM leukemia
  TGI: > 100 µM
SR leukemia
  TGI: > 100 µM
DLD-1 colon
  TGI: > 100 µM
M19-MEL melanoma
  TGI: > 100 µM

## Cc1ccc(S(=O)(=O)NC(=O)C#CCOC2CCCCO2)cc1 (stereo not drawn)
SF-295 CNS
  TGI: > 100 µM
M14 melanoma
  TGI: > 100 µM
XF 498 CNS
  TGI: > 100 µM
DMS 114 small cell lung
  TGI: > 100 µM
CCRF-CEM leukemia
  TGI: > 100 µM
SR leukemia
  TGI: > 100 µM
DLD-1 colon
  TGI: > 100 µM
M19-MEL melanoma
  TGI: > 100 µM

## N#CC(C(=O)C(=O)Nc1ccc(Cl)c(Cl)c1)c1ccc(Cl)cc1 (stereo not drawn)
SF-295 CNS
  TGI: > 100 µM
M14 melanoma
  TGI: > 100 µM
XF 498 CNS
  TGI: > 100 µM
DMS 114 small cell lung
  TGI: 45.7 µM
CCRF-CEM leukemia
  TGI: > 100 µM
SR leukemia
  TGI: > 100 µM
DLD-1 colon
  TGI: > 100 µM

## COc1ccc(NC(=O)CC(=O)n2nc(-c3ccccc3)c(N=Nc3ccccc3C)c2-c2ccccc2)cc1
SF-295 CNS
  TGI: 45.6 µM
M14 melanoma
  TGI: > 100 µM
XF 498 CNS
  TGI: 33.3 µM
DMS 114 small cell lung
  TGI: 49.7 µM
DU-145 prostate
  TGI: > 100 µM
CCRF-CEM leukemia
  TGI: > 100 µM
SR leukemia
  TGI: > 100 µM
DLD-1 colon
  TGI: 82.5 µM
M19-MEL melanoma
  TGI: > 100 µM

## COC(=O)C1=C(C)N(NC(=O)c2cccc(Cl)c2)C(C)(O)C12CCOC2=O (stereo not drawn)
SF-295 CNS
  TGI: > 100 µM
M14 melanoma
  TGI: > 100 µM
XF 498 CNS
  TGI: > 100 µM
DMS 114 small cell lung
  TGI: > 100 µM
SR leukemia
  TGI: > 100 µM
M19-MEL melanoma
  TGI: > 100 µM

## CCOC(=O)NN(C(=O)OCC)C(C(=O)c1ccc(Cl)cc1)=C1NCCN1
SF-295 CNS
  TGI: > 100 µM
M14 melanoma
  TGI: > 100 µM
XF 498 CNS
  TGI: > 100 µM
DMS 114 small cell lung
  TGI: > 100 µM
CCRF-CEM leukemia
  TGI: > 100 µM
SR leukemia
  TGI: > 100 µM
DLD-1 colon
  TGI: > 100 µM
M19-MEL melanoma
  TGI: > 100 µM

## CCOC(=O)/C(=C/c1ccc(Cl)cc1)N(CC)CC
SF-295 CNS
  TGI: > 100 µM
M14 melanoma
  TGI: > 100 µM
XF 498 CNS
  TGI: > 100 µM
CCRF-CEM leukemia
  TGI: > 100 µM
SR leukemia
  TGI: > 100 µM
DLD-1 colon
  TGI: > 100 µM
M19-MEL melanoma
  TGI: > 100 µM

## O=C(NCCCCCCNC(=O)NC1OCC(O)C(O)C1O)NC1OCC(O)C(O)C1O (stereo not drawn)
SF-295 CNS
  TGI: > 100 µM
M14 melanoma
  TGI: > 100 µM
DMS 114 small cell lung
  TGI: > 100 µM
CCRF-CEM leukemia
  TGI: > 100 µM
SR leukemia
  TGI: > 100 µM
DLD-1 colon
  TGI: > 100 µM
M19-MEL melanoma
  TGI: > 100 µM

## CC(=O)OCc1c(C)c2ccccc2n1C(C)=O
SF-295 CNS
  TGI: > 100 µM
M14 melanoma
  TGI: > 100 µM
XF 498 CNS
  TGI: 84.6 µM
DMS 114 small cell lung
  TGI: 47 µM
CCRF-CEM leukemia
  TGI: 73.6 µM
SR leukemia
  TGI: 76.1 µM
M19-MEL melanoma
  TGI: > 100 µM

## CC1OC(n2cc(I)c(=O)[nH]c2=O)C=CC1=O (stereo not drawn)
SF-295 CNS
  TGI: 32.5 µM
M14 melanoma
  TGI: 30.6 µM
XF 498 CNS
  TGI: 33.3 µM
DMS 114 small cell lung
  TGI: 31 µM
CCRF-CEM leukemia
  TGI: 7.74 µM
SR leukemia
  TGI: 32.2 µM
DLD-1 colon
  TGI: 26 µM
M19-MEL melanoma
  TGI: 30.6 µM

## C[CH2][Sn]([Cl])([CH2]C)[CH2]C
SF-295 CNS
  GI50: 1.41 µM
  TGI: 3.92 µM
M14 melanoma
  GI50: 1.27 µM
  TGI: 5.46 µM
XF 498 CNS
  GI50: 0.867 µM
  TGI: 3.26 µM
DMS 114 small cell lung
  GI50: 0.968 µM
  TGI: 4.7 µM
CCRF-CEM leukemia
  GI50: 0.368 µM
  TGI: 3.12 µM
SR leukemia
  GI50: 0.481 µM
  TGI: 5.01 µM
DLD-1 colon
  GI50: 0.973 µM
  TGI: 15.8 µM
M19-MEL melanoma
  GI50: 2.06 µM
  TGI: 11.4 µM

## NC(=O)OCC(COc1ccc(Cl)cc1)OC(=O)c1cc([N+](=O)[O-])cc([N+](=O)[O-])c1 (stereo not drawn)
SF-295 CNS
  TGI: > 100 µM
M14 melanoma
  TGI: > 100 µM
XF 498 CNS
  TGI: > 100 µM
DMS 114 small cell lung
  TGI: 53.8 µM
CCRF-CEM leukemia
  TGI: > 100 µM
SR leukemia
  TGI: > 100 µM
DLD-1 colon
  TGI: > 100 µM

## O=C1C2C3CCC(C2C(=O)N1CO)C1C2C(=O)N(CO)C(=O)C2C31 (stereo not drawn)
SF-295 CNS
  TGI: > 100 µM
M14 melanoma
  TGI: > 100 µM
XF 498 CNS
  TGI: > 100 µM
DMS 114 small cell lung
  TGI: > 59.5 µM
CCRF-CEM leukemia
  TGI: 48.2 µM
SR leukemia
  TGI: 36.7 µM
DLD-1 colon
  TGI: > 65.6 µM
M19-MEL melanoma
  TGI: > 100 µM

## CC1=C2[C@@H](c3ccccc3)C3C=CC2(c2ccccc23)N(C(=O)Nc2cccc3ccccc23)C1=O (stereo partly drawn)
SF-295 CNS
  TGI: > 100 µM
M14 melanoma
  TGI: > 100 µM
XF 498 CNS
  TGI: > 100 µM
DMS 114 small cell lung
  TGI: > 100 µM
CCRF-CEM leukemia
  TGI: > 100 µM
SR leukemia
  TGI: > 100 µM
